From patent publication US9840507B2, “5,6-dihydro-imidazo[1,2-a]pyrazin-8-ylamine derivatives useful as inhibitors of beta-secretase (BACE)” (Janssen Pharmaceutica, NV, priority 2010, dated 2017)

Tests used:
[1] = tested on: Aβ42 produced and secreted into the medium of human neuroblastoma SKNBE2 cells; test: Cellular αlisa assay in SKNBE2 cells, Aβ42; type: cell-based; conditions: Homo sapiens, SKNBE2, 18 h, SKNBE2 cells expressing hAPP695, incubated for 18 hours; read-out: Cellular αlisa assay in SKNBE2 cells Aβ42 pIC50 (converted)
Experimental: (§1) In two αlisa assays the levels of Aβtotal and Aβ42 produced and secreted into the medium of human neuroblastoma SKNBE2 cells are quantified. The assay is based on the human neuroblastoma SKNBE2 expressing the wild type Amyloid Precursor Protein (hAPP695). The compounds are diluted and added to these cells, incubated for 18 hours and then measurements of Aβ42 and Aβtotal are taken. Aβtotal and Aβ42 are measured by sandwich αlisa. αlisa is a sandwich assay using biotinylated antibody AbN/25 attached to streptavidin coated beads and antibody Ab4G8 or cAb42/26 conjugated acceptor beads for the detection of Aβtotal and Aβ42 respectively. In the presence of Aβtotal or Aβ42, the beads come into close proximity. The excitation of the Donor beads provokes the release of singlet oxygen molecules that triggers a cascade of energy transfer in the Acceptor beads, resulting in light emission. Light emission is measured after 1 hour incubation (excitation at […] and emission at 615 nm).
(§2) A best-fit curve is fitted by a minimum sum of squares method to the plot of % Controlmin versus compound concentration.
(§3) LC=Median of the low control values
(§4) =Low control: cells preincubated without compound, without biotinylated Ab in the αlisa
(§5) HC=Median of the High control values
(§6) =High Control: cells preincubated without compound % Effect=100−[(sample−LC)/(HC−LC)*100] % Control=(sample/HC)*100% % Controlmin=(sample−LC)/(HC−LC)*100

[2] = tested on: Aβtotal produced and secreted into the medium of human neuroblastoma SKNBE2 cells; test: Cellular αlisa assay in SKNBE2 cells, Aβtotal; type: cell-based; conditions: Homo sapiens, SKNBE2, 18 h, SKNBE2 cells expressing hAPP695, incubated for 18 hours; read-out: Cellular αlisa assay in SKNBE2 cells Aβtotal pIC50 (converted)
Experimental: as §1, §2, §3, §4, §5, §6

[3] = tested on: brain levels of soluble Aβ42; test: In vivo efficacy: brain Aβ42 lowering (ELISA); design: species or system mouse; conditions: 30 mpk
Source text: (§7) To determine whether acute administration of an Aβ42 peptide lowering agent would reduce Aβ peptide levels in vivo, non-transgenic rodents, e.g. mice or rats were used. Animals treated with the Aβ peptide lowering agent were examined and compared to those untreated or treated with vehicle and brain levels of soluble Aβ42 and total Aβ were quantitated by standard techniques, for example, using ELISA. Treatment periods varied from hours (h) to days and were adjusted based on the results of the Aβ42 lowering once a time course of onset of effect could be established.
(§8) A typical protocol for measuring Aβ42 lowering in vivo is shown but it is only one of many variations that could be used to optimize the levels of detectable Aβ. For example, Aβpeptide lowering compounds were formulated in 20% hydroxypropyl β cyclodextrin. The Aβ peptide lowering agents were administered as a single oral dose (p.o.) or a single subcutaneous dose (s.c.) to overnight fasted animals. After a certain time, usually 2 or 4 h (as indicated in Table 19), the animals were sacrificed and Aβ42 levels were analysed.
(§9) Blood was collected by decapitation and exsanguinations in EDTA-treated collection tubes. Blood was centrifuged at 1900 g for 10 minutes (min) at 4° C. and the plasma recovered and flash frozen for later analysis. The brain was removed from the cranium and hindbrain. The cerebellum was removed and the left and right hemisphere were separated. The left hemisphere was stored at −18° C. for quantitative analysis of test compound levels. The right hemisphere was rinsed with phosphate-buffered saline (PBS) buffer and immediately frozen on dry ice and stored at −80° C. until homogenization for biochemical assays.
(§10) Mouse brains from non-transgenic animals were resuspended in 8 volumes of 0.4% DEA (diethylamine)/50 mM NaCl containing protease inhibitors (Roche-11873580001 or 04693159001) per gram of tissue, e.g. for 0.158 g brain, add 1.264 ml of 0.4% DEA. All samples were homogenized in the FastPrep-24 system (MP Biomedicals) using lysing matrix D (MPBio #6913-100) at 6 m/s for 20 seconds. Homogenates were centrifuged at 221.300×g for 50 min. The resulting high speed supernatants were then transferred to fresh eppendorf tubes. Nine parts of supernatant were neutralized with 1 part 0.5 M Tris-HCl pH 6.8 and used to quantify Aβtotal and Aβ42.
(§11) To quantify the amount of Aβtotal and Aβ42 in the soluble fraction of the brain homogenates, Enzyme-Linked-Immunosorbent-Assays were used. Briefly, the standards (a dilution of synthetic Aβ1-40 and Aβ1-42, Bachem) were prepared in 1.5 ml Eppendorf tube in Ultraculture, with final concentrations ranging from 10000 to 0.3 pg/ml. The samples and standards were co-incubated with HRPO-labelled N-terminal antibody for Aβ42 detection and with the biotinylated mid-domain antibody 4G8 for Aβtotal detection. 50 μl of conjugate/sample or conjugate/standards mixtures were then added to the antibody-coated plate (the capture antibodies selectively recognize the C-terminal end of Aβ42, antibody JRF/cAβ42/26, for Aβ42 detection and the N-terminus of Aβ, antibody JRF/rAβ/2, for Aβtotal detection). The plate was allowed to incubate overnight at 4° C. in order to allow formation of the antibody-amyloid complex. Following this incubation and subsequent wash steps the ELISA for Aβ42 quantification was finished by addition of Quanta Blu fluorogenic peroxidase substrate according to the manufacturer's instructions (Pierce Corp., Rockford, Il). A reading was performed after 10 to 15 min (excitation 320 nm/emission 420 nm).
In this model at least 20% Aβ42 lowering compared to untreated animals would be advantageous.

brain levels of total Aβ = test: In vivo efficacy: brain Aβtotal lowering (ELISA); design: species or system mouse; conditions: 30 mpk
Source text: as §7, §8, §9, §10, §11
For Aβtotal detection, a Streptavidine-Peroxidase-Conjugate was added, followed 60 min later by an additional wash step and addition of Quanta Blu fluorogenic peroxidase substrate according to the manufacturer's instructions (Pierce Corp., Rockford, Il). A reading was performed after 10 to 15 min (excitation 320 nm/emission 420 nm).

[4] = target: T1, recombinant BACE1 protein (Homo sapiens, UniProt P56817); test: Biochemical FRET based assay; conditions: recombinant BACE1 1 μg/ml, 10 μm substrate, 120 minutes, room temperature, pH 5.0; for IC50: read-out: Biochemical FRET based assay pIC50 (converted)
T1 construct: recombinant BACE1 protein in a final concentration of 1 μg/ml
Source text: This assay is a Fluorescence Resonance Energy Transfer Assay (FRET) based assay. The substrate for this assay is an APP derived 13 amino acids peptide that contains the ‘Swedish’ Lys-Met/Asn-Leu mutation of the amyloid precursor protein (APP) β-secretase cleavage site. This substrate also contains two fluorophores: (7-methoxycoumarin-4-yl) acetic acid (Mca) is a fluorescent donor with excitation wavelength at 320 nm and emission at 405 nm and 2,4-Dinitrophenyl (Dnp) is a proprietary quencher acceptor. […] Upon cleavage by BACE1, the fluorophore Mca is separated from the quenching group Dnp, restoring the full fluorescence yield of the donor. The increase in fluorescence is linearly related to the rate of proteolysis (Koike H et al. J. Biochem. 1999, 126, 235-242).
Briefly in a 384-well format recombinant BACE1 protein in a final concentration of 1 μg/ml is incubated for 120 minutes at room temperature with 10 μm substrate in incubation buffer (40 mM Citrate buffer pH 5.0, 0.04% PEG, 4% DMSO) in the absence or presence of compound. Next the amount of proteolysis is directly measured by fluorescence measurement at T=0 and T=120 (excitation at 320 nm and emission at 405 nm).
as §3
=Low control: Reaction without enzyme
as §5
=High Control: Reaction with enzyme % Effect=100−[(sample−LC)/(HC−LC)*100] % Control=(sample/HC)*100% % Controlmin=(sample−LC)/(HC−LC)*100

T1 sequence (P56817 46-501): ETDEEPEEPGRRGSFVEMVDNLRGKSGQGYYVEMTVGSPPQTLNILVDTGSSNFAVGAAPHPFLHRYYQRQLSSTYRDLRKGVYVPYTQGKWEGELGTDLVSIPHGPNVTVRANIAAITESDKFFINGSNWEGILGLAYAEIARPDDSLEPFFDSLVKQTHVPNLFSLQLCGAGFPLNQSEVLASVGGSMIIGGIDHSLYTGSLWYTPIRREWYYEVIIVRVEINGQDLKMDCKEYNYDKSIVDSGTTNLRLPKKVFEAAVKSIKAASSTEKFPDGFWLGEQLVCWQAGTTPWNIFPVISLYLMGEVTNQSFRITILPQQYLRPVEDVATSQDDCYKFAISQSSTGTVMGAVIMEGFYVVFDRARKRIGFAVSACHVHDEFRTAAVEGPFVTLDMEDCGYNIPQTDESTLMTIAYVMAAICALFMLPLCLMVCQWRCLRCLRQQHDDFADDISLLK

Row | SMILES | IC50 [1] [nM] | IC50 [2] [nM] | Aβ42 (% Ctrl)_Mean ([3]; p.o., 2 h after administration) [% Ctrl] | Aβtotal (% Ctrl)_Mean (brain levels of total Aβ; p.o., 2 h after administration) [% Ctrl] | Aβ42 (% Ctrl)_Mean ([3]; s.c., 2 h after administration) [% Ctrl] | Aβtotal (% Ctrl)_Mean (brain levels of total Aβ; s.c., 2 h after administration) [% Ctrl] | IC50 [4] [nM] | Aβ42 (% Ctrl)_Mean ([3]; s.c., 4 h after administration) [% Ctrl] | Aβtotal (% Ctrl)_Mean (brain levels of total Aβ; s.c., 4 h after administration) [% Ctrl] | Biochemical FRET based assay pIC50 [4]
1 | C[C@@]1(c2cc(NC(=O)c3ccc(C#N)cn3)ccc2F)Cn2ccnc2C(N)=N1 [Compound 18] | 6.31 | 5.62 | 38 | 52 | – | – | – | – | – | –
2 | CC1(c2cc(NC(=O)c3ccc(F)cn3)ccc2F)Cn2ccnc2C(N)=N1 (single isomer, unassigned) [Compound 10] | 58.9 | 50.1 | – | – | 45 | 53 | 214 | – | – | –
3 | C[C@@]1(c2cc(NC(=O)c3ccc(F)cn3)ccc2F)Cn2cc(C(F)(F)F)nc2C(N)=N1 [Compound 24] | 38.9 | 33.9 | – | – | – | – | 132 | 50 | 67 | –
4 | C[C@@]1(c2cc(NC(=O)c3ncc(C#N)cc3Cl)ccc2F)Cn2ccnc2C(N)=N1 [Compound 21] | 9.33 | 9.55 | – | – | 33 | 7 | 49 | – | – | –
5 | C[C@@]1(c2cc(NC(=O)c3ccc(C#N)cn3)ccc2F)Cn2cc(C(F)F)nc2C(N)=N1 [Compound 49] | 8.51 | 9.33 | – | – | – | – | 97.7 | – | – | –
6 | CC1(c2cccc(NC(=O)c3ccc(Cl)cn3)c2)Cn2ccnc2C(N)=N1 (racemic) [Compound 6, rac-5-chloro-pyridine-2-carboxylic acid [3-(8-amino-6-methyl-5,6-dihydro-imidazo[1,2-a]pyrazin-6-yl)-phenyl]-amide] | 70.8 | 69.2 | – | – | – | – | 331 | – | – | –
7 | Cc1nc(C(=O)Nc2ccc(F)c([C@]3(C)Cn4ccnc4C(N)=N3)c2)co1 [Compound 43] | 38 | 42.7 | – | – | – | – | 186 | – | – | –
8 | COc1cnc(C(=O)Nc2ccc(F)c(C3(C)Cn4ccnc4C(N)=N3)c2)cn1 (single isomer, unassigned) [Compound 9] | 35.5 | 31.6 | 40 | 63 | 57 | 49 | 148 | – | – | –
9 | COc1cncc(-c2cccc(C3(C)Cn4ccnc4C(N)=N3)c2)c1 (racemic) [Compound 2, rac-6-[3-(5-methoxy-pyridin-3-yl)-phenyl]-6-methyl-5,6-dihydro-imidazo[1,2-a]pyrazin-8-ylamine] | 2140 | 2340 | – | – | – | – | – | – | – | >4.52
10 | CC1(c2cc(-c3cncnc3)c(F)cc2F)Cn2ccnc2C(N)=N1 (single isomer, unassigned) [Compound 11] | 2340 | 1950 | – | – | – | – | 16600 | – | – | –
11 | Cc1nc(C(=O)Nc2ccc(F)c([C@]3(C)Cn4cc(C(F)(F)F)nc4C(N)=N3)c2)c(C)o1 [Compound 41] | 120 | 117 | – | – | – | – | 178 | – | – | –
